Laboratory results taken from US8153589B2, “JNK3 as a target for the treatment of angiogenesis-related diseases” (The University of North Carolina at Chapel Hill, priority 2009, dated 2012).
Where two headings read alike, the source gives them in different places.

Assays:
[1] = system: MKP7; assay: Biotin switch assay, MKP7 S-nitrosylation by NO donors in lysates of transfected HEK293T cells; type: biochemical
Experimental: (§1) Experiments were performed following the methods previously described by Dr. Stamler's laboratory (39). Cell lysates containing Flag or Myc-tagged MKP7 protein were treated with the indicated concentrations of GSNO followed by the addition of 2 volumes of HEN buffer and freshly prepared S-methyl methanethiosulfonate (10% v/v in N,N-dimethylformamide) and SDS (25% v/v) to final concentrations of 0.1 and 2.5%, respectively. Following frequent vortexing at 50° C. for 1 hour, proteins were precipitated with 3 volumes of acetone at −20° C. for 30 min. The proteins were recovered by centrifugation at 5,000×g for 5 min, followed by gentle rinsing of the pellet with 3×1 ml acetone. The pellets were then resuspended in 240 μl of HEN buffer containing 1% SDS. The resuspended protein was precipitated, rinsed and resuspended once more. For labeling, the blocked samples were mixed with 0.1 volume of biotin-HPDP (2.5 mg/ml in Me2SO) and 0.1 volume of HEN (control) or freshly prepared sodium Ascorbic acid in HEN buffer. Labeling reactions were performed in the dark at room temperature for 1 h unless otherwise indicated. To detect an MKP7 SNO protein from cells or lysates, the labeling reaction was acetone-precipitated as previously described. The washed pellet was resuspended in 250 μl of HEN/10 (HEN diluted 10-fold into H2O) containing 1% SDS, followed by addition of 750 μl of neutralization buffer (25 mM HEPES, 100 mM NaCl, 1 mM ETDA, 1% Triton X-100, pH 7.5). This material was incubated overnight at 4° C. with 40 μl of streptavidin-agarose beads. The beads were washed with 3×1 ml of wash buffer (neutralization buffer+500 mM NaCl) and 2×1 ml of neutralization buffer. The dried beads were eluted with 50 μl of HEN/10+1%-mercaptoethanol. The eluted mixture was then analyzed by SDS-PAGE, followed by immunoblotting with anti-Flag-HRP (1:5000) or antibodies.
(§2) The preceding experiments indicate that eNOS and its downstream effector JNK3 are required for SDF-1α-induced endothelial cell migration. However, the molecular mechanisms of eNOS-dependent regulation of JNK3 activity are not intuitive. In the course of exploring various potential regulatory mechanisms, we considered the possibility that regulation of JNK3 by eNOS was determined by suppression of dephosphorylation activities. When cells were incubated with sodium orthovanadate, an inhibitor of protein tyrosine and dual-specificity protein phosphatases, JNK phosphorylation increased both under basal conditions and, most prominently, after SDF-1α treatment (FIG. 3A). […] MKP7, a member of the dual-specificity family of protein phosphatases, interacts with the JNK3 scaffold protein β-arrestin2 (25). Located within the N-terminal catalytic domain of MKP7, the Cys^244 residue is highly sensitive to oxidation due to its low pKa and this oxidation is required for decreased MKP7 activity and sustained activation of JNK3 under certain conditions (26). […] MKP7 S-nitrosylation was also detected with another NO donor-DETA NONOate; the addition of DTT blocked its nitrosylation (data not shown). To further explore the nitrosylation of MKP7 by NO donors, SNOs in MKP7 were replaced with biotin (biotin switch), and peptides generated by trypsinization were purified by avidin chromatography and analyzed by MALDI-TOF and ESI-MS/MS. […]

[2] = system: MKP7; type: biochemical
Experimental: (§4) Flag-MKP7 protein was prepared from the cells transfected with Flag-MKP7 by immunoprecipitation using Flag beads (Sigma). The precipitate was washed twice with lysis buffer containing high salt (1 M NaCl) followed by 2 washes with the reaction buffer. In vitro phosphatase reactions were carried out at 37° C. for 1 hour in I.V.P.A buffer (20 mM Tris⊕HCl, pH7.0, 0.1 mM MgCl2, 1 mM MnCl2, 1 ┌g/┌1 BSA, 1 mM DTT in reduced samples) with 25 ng active JNK3 purified protein (Upstate). The reaction was stopped by the addition of 2× loading buffer followed by western blotting analysis with phospho-specific JNK and JNK antibodies.
(§5) To determine whether this S-nitrosylation event affected MKP7 activity, we performed an in vitro phosphatase activity analysis using activated JNK3 protein in a reaction with MKP7-concentrated cell lysates. […] The activities of these mutants were also evaluated using an in vitro phosphatase assay.

[3] = target: T1, MKP7 (Homo sapiens, UniProt Q9BY84, C244S); type: biochemical
T1 construct: the mutants of full-length MKP7, MKP7-C244S and MKP7-C244A; expressed in transfected cells; host or cells: HEK293T
T1 sequence (Q9BY84 1-317 C244S): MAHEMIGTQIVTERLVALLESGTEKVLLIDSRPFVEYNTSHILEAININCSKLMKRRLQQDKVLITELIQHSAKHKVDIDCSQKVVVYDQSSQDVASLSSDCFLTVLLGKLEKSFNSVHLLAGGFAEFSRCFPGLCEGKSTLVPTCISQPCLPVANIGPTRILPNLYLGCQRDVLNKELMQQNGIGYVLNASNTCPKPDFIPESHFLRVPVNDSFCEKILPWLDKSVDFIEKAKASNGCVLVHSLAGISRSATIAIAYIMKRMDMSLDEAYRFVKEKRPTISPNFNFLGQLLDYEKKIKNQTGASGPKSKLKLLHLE
Experimental: as §4, §5

[4] = target: T1, MKP7; assay: Biotin switch assay, MKP7 S-nitrosylation by NO donors in lysates of transfected HEK293T cells; type: biochemical
Experimental: as §1, §2

[5] = system: JNK3; assay: JNK activation (phospho-JNK Western blot) in BAECs; type: cell-based, bovine; conditions: for SDF-1α-induced JNK phosphorylation in siRNA-transfected cells: BAECs, 50 ng/ml SDF-1alpha for 10 minutes
Experimental: (§3) Cells were harvested in lysis buffer (1% Triton X-100, 50 mM Tris, pH 7.4, 150 mM NaCl, 1 mM Na3VO4 and 0.1% protease inhibitor tablet; Roche) and clarified by centrifugation at 16,000 g. Equal amounts of proteins were incubated with a specific antibody overnight at 4° C. with gentle rotation. Protein A/G Plus-agarose beads (Santa Cruz Biotechnology, Santa Cruz, Calif.) were used to pull down the antibody complexes. Afterward, beads were washed with lysis buffer, and immune complexes were separated by SDS-PAGE. Total cell lysates were separated by SDS-PAGE and transferred to nitrocellulose membranes.
Mitogen-activated protein kinases (MAPKs), including ERK1/2 and p38, have been reported to enhance angiogenesis (20, 21). However, the role of JNK in angiogenesis remains controversial, with studies showing both positive and negative outcomes of JNK activation. In order to determine which MAPKs are involved in SDF-1α-induced endothelial cell migration, we screened the activities and expression levels of ERK1/2, p38 and JNK following treatment of BAECs with SDF-1α. […] SDF-1α activated both JNK and ERK1/2 in a dose-dependent manner (FIG. 2B). […] Protein and mRNA for all three JNK isoforms, JNK1, JNK2 and JNK3, can be found in BAECs (FIGS. 5, A&B). In order to determine which JNK protein(s) was activated by SDF-1α in these cells we used a previously described assay (22). Exogenous JNK1, JNK2 and JNK3 proteins containing Flag or GFP-epitopes were transiently expressed in BAECs and their activities were determined via western blotting with a phospho-JNK antibody following SDF-1α treatment. […] To confirm the finding that JNK3 is the only JNK entity activated by SDF-1α, we transfected cells with siRNAs for each of the JNK proteins and then tested the effect of each siRNA for the ability to suppress SDF-1α-induced JNK activation. […] Because JNK3 was the only SDF-1α-activated JNK in endothelial cells in our studies (FIG. 2C & FIG. 5, C), we consider the phospho-JNK signals in western blots with anti-phospho-JNK antibody as the signals for activated JNK3.

[6] = system: BAECs; assay: Boyden chamber migration assay; type: cell-based, bovine
Experimental: Boyden chamber assays were performed as previously described (40, 41) using a 48-well chamber apparatus (NeuroProbe, Cabin John, Md.). The lower chambers of the apparatus were filled with DMEM with or without SDF-1alpha and then covered with the collagen-coated filter and the upper chambers. Cells pretreated with or without the indicated inhibitors were then added to the upper chambers. After incubating for 6 h at 37° C., cells present on the lower surface were fixed, stained and identified with the 40× objective lens on a Nikon Eclipse TS 100 inverted microscope.
To determine whether eNOS activation is required for SDF-1α-mediated endothelial cell migration, we performed scratch-wound healing and Boyden chamber migration assays in the presence of the NOS-specific inhibitor L-NMMA (19). Confluent BAECs were pretreated for one hour with 1 mM or 5 mM L-NMMA or vehicle prior to each assay. […] Endothelial cells were transfected with 1 of 3 different bovine eNOS-specific siRNAs, or mixture of all three, and 72 hours later cell lysates were examined by western blot analysis for levels of eNOS protein.

[7] = system: ERK1/2; assay: ERK1/2 activation, Western blot in BAECs; type: cell-based, bovine; conditions: L-NMMA, SDF-1α-treated BAECs
Experimental: as §3
Mitogen-activated protein kinases (MAPKs), including ERK1/2 and p38, have been reported to enhance angiogenesis (20, 21). However, the role of JNK in angiogenesis remains controversial, with studies showing both positive and negative outcomes of JNK activation. In order to determine which MAPKs are involved in SDF-1α-induced endothelial cell migration, we screened the activities and expression levels of ERK1/2, p38 and JNK following treatment of BAECs with SDF-1α. […] SDF-1α activated both JNK and ERK1/2 in a dose-dependent manner (FIG. 2B). […] Exogenous JNK1, JNK2 and JNK3 proteins containing Flag or GFP-epitopes were transiently expressed in BAECs and their activities were determined via western blotting with a phospho-JNK antibody following SDF-1α treatment. […]

[8] = system: BAECs; assay: Scratch wound healing assay; type: cell-based, bovine; conditions: L-NMMA pretreatment (1 mM or 5 mM, one hour) plus 50 ng/ml SDF-1alpha
Experimental: For detection of cell migration, a wound healing assay was performed as previously described (40). BAECs were grown on 35 mm wells, the monolayer was scratched with a sterile disposable rubber policeman and the edge labeled with a traced line. After injury, the cells were gently washed with normal media without serum. EC migration from the edge of the injured monolayer was quantified by measuring the area between the wound edges before and the recovered area after injury using light microscopy (Eclipse TS100, 4× objective, Nikon) and the computer program ImageJ.
To determine whether eNOS activation is required for SDF-1α-mediated endothelial cell migration, we performed scratch-wound healing and Boyden chamber migration assays in the presence of the NOS-specific inhibitor L-NMMA (19). Confluent BAECs were pretreated for one hour with 1 mM or 5 mM L-NMMA or vehicle prior to each assay. […] Similarly, cell migration in Boyden chambers was induced by SDF-1α (from 8±3 to 86±5 cells per field), but this increase in migration was inhibited by the pre-incubation of BAECs with L-NMMA (FIG. 1D). The involvement of eNOS in SDF-1α-induced endothelial cell migration was confirmed by treatment of cells with siRNAs specific for eNOS. […]

[9] = system: BAECs; assay: In vitro Matrigel angiogenesis (tube formation) assay; type: cell-based, bovine; conditions: siRNA-expressing cells
Experimental: Endothelial cell tube formation was analyzed with the Matrigel-based tube formation assay (40, 41). Chilled 24-well plates were coated with growth factor-reduced Matrigel (Becton Dickinson, San Jose, Calif.) that was polymerized at 37° C. for 30 min. BAECs were transfected with siRNA constructs with the Amaxa Nucleofector electroporation reagent. Three days later, cells were trypsinized, and plated at equal numbers into each Matrigel-coated well. After 18 hours of incubation in the absence or presence of SDF-1alpha, the formation of tubes was photographed (Eclipse, 10× objective, TS100Nikon). Images were quantified with ImageJ.
Endothelial cell migration is a critical step for tube formation during angiogenesis. To test the importance of JNK3 in highly ordered cell assembly processes, we examined the effect of JNK knockdown with siRNAs on the formation of capillary-like tubes in Matrigel. BAECs were transfected with JNK1 siRNA, JNK2 siRNA, JNK3 siRNA or control siRNA. After 72 hours, cells were plated on Matrigel in medium containing 50 ng/ml SDF-1α.

[10] = Myc-MKP7, GSNO 500 μM, 10 minutes

NCCN(CCN)/[N+]([O-])=N/O [DETA NONOate]
S-nitrosylation of MKP7 [1, 10]: detected

O[C@@H](CS)[C@@H](O)CS [DTT]
S-nitrosylation of MKP7 [1, 10]: blocked

N[C@@H](CCC(=O)N[C@@H](CSN=O)C(=O)NCC(=O)O)C(=O)O [GSNO, nitrosoglutathione]
MKP7 phosphatase activity [2]: markedly inhibited | phosphatase activity of MKP7-WT and MKP7-ΔC [2]: decreased dramatically | phosphatase activity of MKP7-ΔC (C244S) [3]: essentially unchanged | S-nitrosylation of MKP7 [1]: S-nitrosylated | nitrosylation of MKP7-WT and MKP7-ΔC [1]: strongly nitrosylated | nitrosylation of MKP7-ΔC (C244S) compared to MKP7-ΔC [4]: markedly attenuated

CNC(=N)NCCC[C@H](N)C(=O)O [L-NMMA, reference compound]
JNK3 activation induced by SDF-1α ([5]; 0.5-5 mM L-NMMA, 50 ng/ml SDF-1alpha for 5 minutes): specifically inhibited | SDF-1α-induced increase in migration in Boyden chambers ([6]; pre-incubation with L-NMMA, 50 ng/ml SDF-1alpha): inhibited | ERK activation [7]: not affected | BAEC migration towards the wounded area [8]: 17.7±2.4%

Oc1c2ccccc2c2c3c(cccc13)N=N2 [SP600125]
SDF-1α-mediated endothelial cell migration ([6]; 10 μM SP600125, 50 ng/ml SDF-1alpha): 27±3 cells | SDF-1α-mediated endothelial cell migration ([6]; 50 μM SP600125, 50 ng/ml SDF-1alpha): 20±2 cells

N#CC(=C(/N)Sc1ccccc1N)/C(C#N)=C(\N)Sc1ccccc1N [U0126]
endothelial cell migration induced by SDF-1α ([6]; 20 μM U0126 (data not shown)): decreased

[Na+].[Na+].[Na+].[O]=[V]([O-])([O-])[O-] [sodium orthovanadate, reference compound]
JNK phosphorylation ([5]; Na3VO4 10, 100, 500 μM, basal and after 50 ng/ml SDF-1α): increased

JNK1 siRNA: AUAACAAAUCCCUUGCCUGACUGGC (SEQ ID NO:4) (listed as RNA, chemistry not given here)
tube length ([9]; with 50 ng/ml SDF-1α): 438±108 μm | tube length ([9]; without SDF-1α): 88±23 μm | SDF-1α-induced JNK phosphorylation in siRNA-transfected cells [5]: significantly enhanced

JNK2 siRNA: AGUUGAGUCU GCCACUUGUACACUG (SEQ ID NO:5) (AGUUGAGUCUGCCACUUGUACACUG; listed as RNA, chemistry not given here)
tube length ([9]; with 50 ng/ml SDF-1α): 504±93 μm | tube length ([9]; without SDF-1α): 121±61 μm | SDF-1α-induced JNK phosphorylation in siRNA-transfected cells [5]: significantly enhanced
